# Test results as given in patent US11820782B2, “Salt forms of amino pyrazine purine based selective kinase inhibitor” (FTG BIO LLC, priority 2018, dated 2023).
# Assays:
# [1] = Equilibrium solubility in pH 6.8 0.01M phosphate buffer by HPLC; assay type: physicochemical; conditions: pH6.8 0.01M potassium dihydrogen phosphate buffer
# [2] = Microsomal stability, PHLM; assay type: in vitro ADME; conditions: pooled human liver microsomes; for Invitro T1/2, PHLM: 3 μM (n = 3)
# Experimental: (§1) All in vitro experiments like protein binding, microsomal stability, cell cytotoxicity were performed as per study protocols of respective experiments.
# [3] = pH vs solubility study (RP-HPLC); assay type: physicochemical
# Experimental: In 2 mL volume of buffers (ranging from pH 1.2 to 7.4) and purified water, compound (either free base or esylate or oxalate) was added with increments until the compound doesn't dissolve further in the medium and compound remains undissolved or excess in the solution. The samples were kept for overnight at ambient room temperature to saturate/equilibrate. The dispersions were filtered through 0.45 μm PVDF or nylon membrane filters and the filtrates were analysed using RP-HPLC for determination of solubility of compounds in various buffers and purified water.
# Human Plasma = assay: Plasma protein binding, human; assay type: in vitro ADME; conditions: for % Bound, Human Plasma: 10 μM (n = 4)
# Experimental: as §1
# [4] = system: MDA-MB-231 (breast cancer); assay: Anti-proliferative effect, MDA-MB-231; assay type: cell-based
# Experimental: as §1
# [5] = Intravenous and per oral pharmacokinetics in male Balb/c mice; assay type: in vivo; conditions: for Bioavailability (% F): PO dose (50 mg/kg) vs IV 10 mg/kg
# Experimental: The husbandry conditions were maintained as described in animal facility SOPs during the study period. Animals procured were quarantined for 7 days followed by acclimatization for 5 days. The study was carried out for two days. Male Balb/c mice of age 10-12 weeks (18-25 g) and male Sprague Dawley rats 8-10 weeks (220-280 g) were used. The food was with held for a period of 4-12 hr prior to dosing and returned to all animals 4h post dosing and water supplied ad libitum. The doses of FT1518 were as follows: Mice: 10 mg/kg intravenous (i.v) and 50 mg/kg oral (p.o); rat—5 mg/kg intravenous (i.v) and 10 mg/kg oral (p.o). The formulation used in i.v and p.o studies were 10% dimethylsulfoxide (DMSO)+30% polyethyleneglycol 400 (PEG400)+60% water and 0.5% methylcellulose (MC)+0.1% tween 80. Blood was collected at the predetermined time points in mice (cardiac puncture) and Jugular vein (rats) over a period of 24h in eppendorf tubes containing K2EDTA as anticoagulant. The plasma was isolated from the blood and stored at −80° C. until bioanalysis. Species: BALB/C mice Gender: Male Dose: IV (10 mg/kg), Single dose • PO (50 mg/kg), single dose Formulation: • IV—DMSO: PEG400:Water (10:30:60 v/v) • PO— 0.5% methylcellulose and 0.1% Tween 80 in water Sampling Time Points: • IV: 5 min, 30 min, 1 h, 2, 4, 8 and 24 h post dose • PO: 10 min, 30 min, 1 h, 2, 4, 8 and 24 h post dose. PK analysis: Phoenix software (Pharsight product). Noncompartmental Analysis (NCA) was used to estimate the PK parameters. FIG. 56 depicts a pharmacokinetic profile of FT-1518 base in mice. Table 31 summarizes PK parameters used in a pharmacokinetic profile with intravenous dose in mice and Table 32 summarizes PK parameters used in a pharmacokinetic profile with per oral dose in mice.
# Mouse plasma = assay: Plasma protein binding, mouse; assay type: in vitro ADME; conditions: for % Bound, Mouse plasma: 10 μM (n = 4)
# Experimental: as §1
# [6] = Microsomal stability, RLM; assay type: in vitro ADME; conditions: rat liver microsomes; for Invitro T1/2, RLM: 3 μM (n = 3)
# Experimental: as §1
# [7] = system: U-87 (giloblastoma, epithelial); assay: Anti-proliferative effect, U-87; assay type: cell-based
# Experimental: as §1
# [8] = Qualitative (kinetic/visual) solubility in solvents/media; assay type: physicochemical
# Experimental: 2 mg quantity of API was taken in glass vial and small portions of solvent was added with vortexing till the clear solution is obtained (at room temperature or heating up to 50-60° C.).
# Weighed quantity of API was taken in glass vial and small portions of solvent was added with vortexing till the clear solution is obtained (at room temperature or heating up to 50-60° C.).
# [9] = IV dose (10 mg/kg), single dose, male Balb/c mice
# [10] = PO dose (50 mg/kg), single dose, male Balb/c mice, 50 mg/kg
compound,measurement,setting,value
CCC(CC)n1cnc2c(-c3cnc(N)cn3)nc(N3CC4CCC(C3)O4)nc21 [FT-1518 base],Solubility in pH 6.8 buffer,[1]; listed as Free base of FT-1518,0.02 mg/mL
same,"Invitro T1/2, PHLM",[2],>1 h
same,stability in PHLM,[2],"✓ FT1518, FT 1518-Esylate and FT1518-Oxalate was highly stable in PHLM and RLM"
same,Solubility,"[3]; Water, overnight, ambient room temperature, listed as Free base",120 µg/mL
same,Solubility,"[3]; pH 1.2 HCl, listed as Free base",>50250 µg/mL
same,Solubility,"[3]; pH 3.0 Citrate buffer, listed as Free base",2110 µg/mL
same,Solubility,"[3]; pH 4.0 Acetate buffer, listed as Free base",340 µg/mL
same,Solubility,"[3]; pH 5.0 Acetate buffer, listed as Free base",140 µg/mL
same,Solubility,"[3]; pH 6.8 Phosphate buffer, listed as Free base",110 µg/mL
same,Solubility,"[3]; pH 7.4 Phosphate buffer, listed as Free base",100 µg/mL
same,"plasma protein binding, human plasma",Human Plasma,"✓ FT1518, FT1518-Esylate and FT1518-Oxalate showed moderate plasma protein binding in both mouse and human plasma"
same,"% Bound, Human Plasma",Human Plasma,97.32%
same,IC50,[4],> 30 µM
same,clearance as % of mouse liver blood flow,"[5]; IV 10 mg/kg, mice",~30%
same,AUC0-∞,[5]; [9],7637 ± 2021 ng·h/mL
same,Cl,[5]; [9],23.3 ± 8.3 mL/min/kg
same,Bioavailability (% F),[5]; male Balb/c mice,68 % F
same,AUC0-∞,[5]; [10],25801 ± 404 ng·h/mL
same,Cmax,[5]; [10],8761 ± 718 ng/mL
same,Tmax,[5]; [10],0.2 h
same,"plasma protein binding, mouse plasma",Mouse plasma,"✓ FT1518, FT1518-Esylate and FT1518-Oxalate showed moderate plasma protein binding in both mouse and human plasma"
same,"% Bound, Mouse plasma",Mouse plasma,91.52%
same,"Invitro T1/2, RLM",[6],>1 h
same,stability in RLM,[6],"✓ FT1518, FT 1518-Esylate and FT1518-Oxalate was highly stable in PHLM and RLM"
same,IC50,[7],> 10 µM
same,solubility (descriptive term),[8]; 0.11N HCl,soluble
same,Solubility,"[8]; 1,4-dioxane",>100000 µg/mL
same,solubility (descriptive term),"[8]; 1,4-dioxane",freely soluble
same,Solubility,[8]; Dimethyl sulphoxide,>100000 µg/mL
same,solubility (descriptive term),[8]; Dimethyl sulphoxide,freely soluble
same,Solubility,"[8]; N,N-dimethyl acetamide",>100000 µg/mL
same,solubility (descriptive term),"[8]; N,N-dimethyl acetamide",freely soluble
same,Solubility,[8]; N-methyl pyrrolidone,>100000 µg/mL
same,solubility (descriptive term),[8]; N-methyl pyrrolidone,freely soluble
same,Solubility,[8]; Purified water,<1000 µg/mL
same,Solubility,[8]; Tetrahydrofuran,>100000 µg/mL
same,solubility (descriptive term),[8]; Tetrahydrofuran,freely soluble
same,solubility (descriptive term),[8]; acetone,freely soluble
same,solubility (descriptive term),[8]; acetonitrile,soluble
same,Solubility,[8]; dichloromethane,>100000 µg/mL
same,solubility (descriptive term),[8]; dichloromethane,freely soluble
same,Solubility,[8]; diethyl ether,<1000 µg/mL
same,solubility (descriptive term),[8]; diethyl ether,insoluble
same,Solubility,[8]; ethanol,>100000 µg/mL
same,solubility (descriptive term),[8]; ethanol,freely soluble
same,solubility (descriptive term),[8]; ethyl acetate,soluble
same,solubility (descriptive term),[8]; isopropyl acetate,soluble
same,solubility (descriptive term),[8]; isopropyl alcohol,freely soluble
same,Solubility,[8]; methanol,>100000 µg/mL
same,solubility (descriptive term),[8]; methanol,freely soluble
same,solubility (descriptive term),[8]; methyl tertiary butyl ether,slightly soluble
same,Solubility,[8]; n-heptane,<1000 µg/mL
same,solubility (descriptive term),[8]; n-heptane,insoluble
same,Solubility,[8]; n-hexane,<1000 µg/mL
same,solubility (descriptive term),[8]; n-hexane,insoluble
same,solubility (descriptive term),"[8]; purified water, listed as FT1518",practically insoluble
same,solubility (descriptive term),"[8]; purified water, listed as FT-1518",insoluble
same,solubility (descriptive term),[8]; toluene,soluble
CCC(CC)n1cnc2c(-c3cnc(N)cn3)nc(N3CC4CCC(C3)O4)nc21 [FT-1518-Oxalate],Solubility in pH 6.8 buffer,[1],10.21 mg/mL
same,"Invitro T1/2, PHLM",[2],>1 h
same,stability in PHLM,[2],"✓ FT1518, FT 1518-Esylate and FT1518-Oxalate was highly stable in PHLM and RLM"
same,Solubility,"[3]; Water, overnight, ambient room temperature, listed as Oxalate salt",11030 µg/mL
same,Solubility,"[3]; pH 1.2 HCl, listed as Oxalate salt",>52760 µg/mL
same,Solubility,"[3]; pH 3.0 Citrate buffer, listed as Oxalate salt",20250 µg/mL
same,Solubility,"[3]; pH 4.0 Acetate buffer, listed as Oxalate salt",1050 µg/mL
same,Solubility,"[3]; pH 5.0 Acetate buffer, listed as Oxalate salt",140 µg/mL
same,Solubility,"[3]; pH 6.8 Phosphate buffer, listed as Oxalate salt",5280 µg/mL
same,Solubility,"[3]; pH 7.4 Phosphate buffer, listed as Oxalate salt",760 µg/mL
same,"plasma protein binding, human plasma",Human Plasma,"✓ FT1518, FT1518-Esylate and FT1518-Oxalate showed moderate plasma protein binding in both mouse and human plasma"
same,"% Bound, Human Plasma",Human Plasma,95.54%
same,IC50,[4],> 10 µM
same,bioavailability in comparison to esylate salt and base,"[5]; PO 50 mg/kg, Balb/c male mice",FT-1518-oxalate salt showed high bioavailability in comparison to esylate salt and base.
same,Bioavailability (% F),[5]; male Balb/c mice,76 % F
same,AUC0-∞,[5]; [10],28876 ± 7762 ng·h/mL
same,Cmax,[5]; [10],8444 ± 1473 ng/mL
same,T1/2,[5]; [10],3.5 ± 1.9 h
same,Tmax,[5]; [10],0.3 ± 0.2 h
same,"plasma protein binding, mouse plasma",Mouse plasma,"✓ FT1518, FT1518-Esylate and FT1518-Oxalate showed moderate plasma protein binding in both mouse and human plasma"
same,"% Bound, Mouse plasma",Mouse plasma,91.79%
same,"Invitro T1/2, RLM",[6],>1 h
same,stability in RLM,[6],"✓ FT1518, FT 1518-Esylate and FT1518-Oxalate was highly stable in PHLM and RLM"
same,IC50,[7],> 10 µM
same,Solubility,[8]; Dimethyl sulphoxide,>100000 µg/mL
same,Solubility,[8]; N-methyl pyrrolidone,>100000 µg/mL
same,Solubility,[8]; dichloromethane,<1000 µg/mL
same,Solubility,[8]; ethyl acetate,<1000 µg/mL
same,Solubility,[8]; n-hexane,<1000 µg/mL
same,Solubility,[8]; toluene,<1000 µg/mL
